Measurements taken from patent US9012471B2, “Glucose metabolism modulating compounds” (The Trustees of Columbia University in the City of New York, priority 2008, dated 2015).
Blank lines part the entries; values can stand above or below the compound they belong to.

Columns and labels:
Lewis rats [1] = test: Intraperitoneal glucose tolerance test (IPGTT), blood glucose; assay type: in vivo, rat; conditions: for hypoglycemic activity in IPGTT (improvement of glucose tolerance): 2 mg/kg i.v., Lewis rats; for decrease of AUC IPGTT: 2 mg/kg i.v. 30 minutes before glucose 2 g/kg I.P.
Method: Rats were handled daily to minimize nonspecific stress for more than 7 days before the experiments began. In most experiments, it was necessary to measure blood glucose in fasting animals. For these groups, food was removed at the beginning of the light cycle, 6 hours before glucose levels were tested.
Sixty minutes prior to intraperitoneal glucose tolerance testing (IPGTT), anesthesia of male Lewis rats was induced with isoflurane (3-4% in oxygen) and maintained with 1-2% isoflurane in oxygen.
Anaesthetized rats were administered TBZ at the indicated dose by intravenous (i.v.) injection using the penile vein. […] Control rats received injections of vehicle alone (10% DMSO in Saline).
(§1) Animals were fully recovered for at least 30 minutes before receiving IPGTT. In specified experiments, L-DOPA was injected interperitoneal (I.P.) at the specified dose at the initiation of IPGTT. Abnormal glucose tolerance was induced by a single I.P. injection of streptozotocin (STZ) (Sigma Aldrich, St. Louis, Mo.) (50 mg/kg) to animals that had been fasted 4 hours to enhance the efficacy of STZ.
(§2) Blood samples were collected between 12:00 noon and 2:00 p.m. from a superficial blood vessel in the tails of the rats following 6 hours of fasting. The fasting blood glucose (BG) levels of the rats were measured using an Accu-Check blood glucose monitoring system (Roche Diagnostics, Sommerville, N.J.). IPGTT was performed in 6-hour fasting anaesthetized animals as previously described (Weksler-Zangen, et al. 2001). Briefly, after baseline BG measurements, animals received an I.P. injection of 2 grams of glucose/kg body weight. To minimize stress during the procedure, rats were handled by the same operator during acclimatization and later during weighing and IPGTT. Blood samples (50 μl or 150 μl) were collected at baseline and then again 15, 30, 60, 90, and 120 minutes following I.P. injection of glucose. Blood glucose concentrations were measured immediately on these samples and the remainder processed. Plasma was immediately separated by centrifugation at 3,000×g for 15 minutes and then stored at −80° C. until analysis.
(§3) Insulin and glucagon concentration measurements in rat plasma were performed by ELISA as per the manufacturer's instructions using kits from Linco Research Inc. (St. Charles, Mich.) and Alpco Diagnostics (Salem, N.H.), respectively. To validate the test, saline injections were performed by the same method. […] The area under the insulin, glucagon and IPGTT glucose concentration×time curve (AUC IPGTT) was calculated by the trapezoidal rule.

purified rat islets = test: Static glucose stimulated insulin secretion in purified islets; assay type: cell-based; conditions: 100 nM DTBZ
Method: Rat pancreas digestion, islet isolations, and static insulin secretion assays were performed as previously described (Niswender et al. 2005; Sweet, et al. 2004; Sweet and Gilbert 2006). Purified islets were cultured in RPMI 1640 culture media with 10% fetal bovine serum at 37° C. in humidified air (5% CO2) for 18 to 24 hours. Assessment of insulin secretion in static media was carried out as follows. Islets were handpicked twice into a Petri dishes containing Krebs-Ringer bicarbonate (KRB) buffer (with 3 mM glucose and 0.1% BSA) and pre-incubated for 60 minutes (37° C. and 5% CO2). Subsequently, batches of 100 islets (in quadruplicate) were transferred into 96-well plates containing 200 μl of KRB with either 3 or 20 mM glucose, with or without 100 nM DTBZ and incubated for 60 minutes. The supernatant was removed and the insulin was measured using ELISA (ALPCO, Windham, N.H.).

DPP-IV = target: T1, DPP-IV (Homo sapiens, UniProt P27487); test: DPP profiling service (BPS Bioscience), in vitro; assay type: biochemical; conditions: concentrations up to 10 μM
T1 construct: purchased BPS Bioscience, Inc. (San Diego, Calif.)
Method: The effect of DTBZ on DDP-IV was determined using the DPP profiling service from BPS Bioscience, Inc. (San Diego, Calif.).

VMAT2 [2] = target: T2, VMAT2 (Rattus norvegicus, UniProt Q01827); test: Fake Fluorescent Neurotransmitter (FFN) uptake high throughput assay in INS 832/13 cells; assay type: cell-based; conditions: for block of FFN uptake/transport: one hour preincubation
T2 construct: endogenous in cells; host or cells: rat INS 832/13 insulinoma cells
Source text: A high throughput (HTP) assay was developed to screen for compounds that interact with, e.g., bind to, VMAT2. The HTP exploits a class of compounds called Fake Fluorescent Neurotransmitters (FFN) that share the following characteristics a) low molecular weight and sufficiently hydrophilic to be water soluble; b) in aqueous buffer (pH 7), the excitation maxima is around 380-406 nm and the emission maxima is around 501 nm; and c) similar Kd for VMAT2 as dopamine. To validate the use of these compounds in beta cell lines (positive for VMAT2) the following set of experiments were performed.
The rat INS 832/13 cell line was selected because it secretes insulin in response to glucose concentrations in the physiological range and can be shown to contain VMAT2 by PCR. […] INS cells were grown on cover slips in normal media, then pretreated with and without DTBZ in low glucose media for one hour and then loaded with FFN (GH206). The distribution of fluorescent dye was then examined under a fluorescent microscope. The FFN distributes itself intracellularly in a punctate pattern similar, if not identical, to insulin containing granules of this cell line (data not shown). […] For better quantitation of the fluorescent signal, the cells were grown in […] and the same experiment substantially repeated. Briefly, cells were grown to confluence in complete high glucose media, then incubated for one hour in low glucose media. DTBZ was then added to the wells for one hour, followed with a second one hour incubation with FFN. Wells were then washed and the fluorescent signal (380 exc, 512 emm) measured in a multiwell fluorometer (Synergy HT Multi-Mode Microplate Reader).

[3] = rats; cited from earlier work
Lewis rats [4] = test: Dopamine content of brain and pancreas tissue by ELISA after TBZ; assay type: in vivo, rat; conditions: 1.5 mg/Kg i.v., one hour after injection
Method: Euthanasia was performed by exsanguination of the anesthetized animal. Brain and pancreas were harvested as quickly as possible and frozen at −80° C. until use. […] The tissue extract was centrifuged at 10,000×g at 4° C. to remove debris and the total protein was estimated by reading the absorbance at 280 nm.

rats = conditions: cited from earlier work
STZ treated rats = test: IPGTT and insulin in streptozotocin (STZ) treated rats; assay type: in vivo, rat; conditions: TBZ 1.5 mg/Kg
Method: as §1
STZ solution was prepared fresh by dissolving it in 0.1 M citrate buffer (pH 5.5) and terminally sterile filtered. Control Lewis age and weight matched rats received a 0.5 ml/kg citrate vehicle alone via intraperitoneal injection. […]
Blood samples were collected between 12:00 noon and 2:00 p.m. from a superficial blood vessel in the tails of the rats following 6 hours of fasting. The fasting blood glucose (BG) levels of the rats were measured using an Accu-Check blood glucose monitoring system (Roche Diagnostics, Sommerville, N.J.). […] Blood glucose concentrations were measured immediately on these samples and the remainder processed. […]
as §3, with “respectively.” for “respectively. To validate the test, saline injections were performed by the same method.”

VMAT2 [5] = target: VMAT2 (Homo sapiens, UniProt Q05940); conditions: cited from earlier work
Lewis rats [6] = test: Plasma insulin and glucagon during IPGTT; assay type: in vivo, rat
Method: as §2, with “The” for “Blood samples were collected between 12:00 noon and 2:00 p.m. from a superficial blood vessel in the tails of the rats following 6 hours of fasting. The”, “([…],” for “(Weksler-Zangen,”, “-80°” for “−80°”, “analysis. Insulin and glucagon concentration measurements in rat plasma were performed by ELISA as per the manufacturer's instructions using kits from Linco Research Inc. (St. Charles, Mich.) and Alpco Diagnostics (Salem, N.H.), respectively. To validate the test, saline injections were performed by the same method. […] The area under the insulin, glucagon and IPGTT glucose concentration×time curve (AUC IPGTT) was calculated by the trapezoidal rule.” for “analysis.”

VMAT1 = target: T3, VMAT1 (Homo sapiens, UniProt P54219); conditions: cited from earlier work
T3 sequence (P54219 1-525): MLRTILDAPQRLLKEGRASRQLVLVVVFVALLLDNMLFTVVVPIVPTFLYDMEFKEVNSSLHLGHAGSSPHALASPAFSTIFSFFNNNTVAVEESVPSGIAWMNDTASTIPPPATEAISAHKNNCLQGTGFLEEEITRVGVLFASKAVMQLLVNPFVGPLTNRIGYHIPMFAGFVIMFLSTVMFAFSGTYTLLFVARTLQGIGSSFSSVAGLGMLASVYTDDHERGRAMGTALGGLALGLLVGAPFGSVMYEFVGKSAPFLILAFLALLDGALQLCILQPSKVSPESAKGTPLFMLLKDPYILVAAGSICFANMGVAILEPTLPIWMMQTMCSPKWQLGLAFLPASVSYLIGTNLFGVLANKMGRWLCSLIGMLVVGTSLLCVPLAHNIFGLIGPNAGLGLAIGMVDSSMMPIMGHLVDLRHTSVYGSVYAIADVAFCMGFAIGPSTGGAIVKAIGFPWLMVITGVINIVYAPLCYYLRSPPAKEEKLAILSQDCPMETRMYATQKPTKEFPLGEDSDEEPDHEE

VMAT2 [7] = target: T2, VMAT2; test: PET displacement of [11C]DTBZ in pancreas; assay type: in vivo; conditions: cold compound 2 mg/kg, 30 minutes after radioligand
Method: PET scans were performed on 12-14-week-old Lewis male rats. Prior to imaging, the animals were anesthetized by isoflurane inhalation. After a transmission scan of the area of interest had been acquired (used to perform attenuation correction of the emission data), the radioligand [^11C]DTBZ was administered (0.5-1.0 μCi/gm) in saline as a bolus injection via the penile vein. PET scans of the animals were acquired dynamically to 90 minutes post-injection on a Concorde microPET-R4 (CTI Molecular Imaging (Knoxville, Tenn.)). The scanner provided a 100×80 mm field of view with a reconstructed resolution of 2.25 mm in the central 40 mm of the field of view.
At thirty minutes post injection of [^11C]DTBZ, animals received a second injection via the penile vein of cold analog. PET data were processed using an attenuation correction matrix obtained by transmission scans and images were reconstructed using Fourier rebinning, followed by two-dimensional, filtered back projection using microPET manager software (CTI Molecular Imaging (Knoxville, Tenn.)).
To test whether the strong hypoglycemic effect of compound 8 is conferred by binding to VMAT2 in beta cells, a PET study in rats was performed. The animals were treated with radiolabeled DTBZ, and the uptake of [^11C]DTBZ in pancreas was monitored by PET scan in the presence of an excess of compound 8.

T2 sequence (Q01827 whole entry): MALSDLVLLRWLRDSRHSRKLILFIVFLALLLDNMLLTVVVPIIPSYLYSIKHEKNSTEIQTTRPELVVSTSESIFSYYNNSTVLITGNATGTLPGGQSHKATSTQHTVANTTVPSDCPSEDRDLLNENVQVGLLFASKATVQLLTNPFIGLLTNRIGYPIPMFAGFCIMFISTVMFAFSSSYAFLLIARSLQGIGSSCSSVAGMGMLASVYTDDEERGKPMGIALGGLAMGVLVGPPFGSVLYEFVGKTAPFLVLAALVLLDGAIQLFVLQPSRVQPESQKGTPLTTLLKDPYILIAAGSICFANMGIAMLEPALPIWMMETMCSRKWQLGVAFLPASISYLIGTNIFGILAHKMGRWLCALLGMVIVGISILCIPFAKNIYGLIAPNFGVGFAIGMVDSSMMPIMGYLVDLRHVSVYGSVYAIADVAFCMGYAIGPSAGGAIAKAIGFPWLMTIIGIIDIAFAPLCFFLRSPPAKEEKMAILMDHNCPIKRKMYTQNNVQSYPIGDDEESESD
T1 sequence (P27487 whole entry, species assumed): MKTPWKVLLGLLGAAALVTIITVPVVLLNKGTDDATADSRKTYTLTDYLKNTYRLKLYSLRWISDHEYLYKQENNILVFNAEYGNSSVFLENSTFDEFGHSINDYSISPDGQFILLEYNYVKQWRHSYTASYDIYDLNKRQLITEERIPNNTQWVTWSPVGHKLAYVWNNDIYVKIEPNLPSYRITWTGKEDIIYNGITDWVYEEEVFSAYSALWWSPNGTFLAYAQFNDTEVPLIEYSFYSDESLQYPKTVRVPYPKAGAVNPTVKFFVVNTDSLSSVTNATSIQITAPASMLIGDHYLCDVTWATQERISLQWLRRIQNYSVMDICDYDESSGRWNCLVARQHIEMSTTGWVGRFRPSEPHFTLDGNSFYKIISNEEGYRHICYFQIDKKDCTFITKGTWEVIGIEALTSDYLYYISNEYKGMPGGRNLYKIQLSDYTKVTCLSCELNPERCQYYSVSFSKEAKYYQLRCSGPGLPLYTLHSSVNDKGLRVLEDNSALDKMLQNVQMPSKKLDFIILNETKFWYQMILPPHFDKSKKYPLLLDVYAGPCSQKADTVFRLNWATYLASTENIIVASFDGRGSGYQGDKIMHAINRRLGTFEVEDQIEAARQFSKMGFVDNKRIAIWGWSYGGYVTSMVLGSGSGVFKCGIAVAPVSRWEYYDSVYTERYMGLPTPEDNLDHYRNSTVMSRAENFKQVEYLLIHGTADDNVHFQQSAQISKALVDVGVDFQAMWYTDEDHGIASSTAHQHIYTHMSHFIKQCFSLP
Chain of VMAT2 (Homo sapiens, UniProt Q05940) (Q05940 whole entry): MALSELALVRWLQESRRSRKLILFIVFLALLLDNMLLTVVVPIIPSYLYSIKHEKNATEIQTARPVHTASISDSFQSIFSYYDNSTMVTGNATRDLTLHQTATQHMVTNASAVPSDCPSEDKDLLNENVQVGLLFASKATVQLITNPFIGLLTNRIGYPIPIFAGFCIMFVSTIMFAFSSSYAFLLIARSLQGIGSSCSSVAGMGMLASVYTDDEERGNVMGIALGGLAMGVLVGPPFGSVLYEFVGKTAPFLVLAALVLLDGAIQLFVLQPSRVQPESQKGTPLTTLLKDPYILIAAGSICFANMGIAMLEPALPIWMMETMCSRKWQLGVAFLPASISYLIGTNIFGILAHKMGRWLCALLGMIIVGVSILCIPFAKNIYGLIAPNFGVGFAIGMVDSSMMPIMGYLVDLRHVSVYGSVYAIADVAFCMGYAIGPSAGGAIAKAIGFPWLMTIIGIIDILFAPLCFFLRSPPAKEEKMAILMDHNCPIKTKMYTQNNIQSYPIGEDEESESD

Structure (SMILES): COc1ccc(C2CC(O)C(CC(C)C)CN2)cc1OC (racemic) [compound 1]
hypoglycemic activity in IPGTT (improvement of glucose tolerance) (Lewis rats [1]): less potent than TBZ

Structure (SMILES): COc1cc2c(cc1OC)[C@H]1C[C@@H](O)[C@H](CC(C)C)CN1CC2 [DTBZ, dihydrotetrabenazine]
enhancement of glucose stimulated insulin secretion (purified rat islets; high glucose (20 mM), 60 minutes): two to three fold
increase in insulin secretion (purified rat islets; low glucose (3 mM)): not statistically significant
effect on DPP-IV (DPP-IV): no effect
block of FFN uptake/transport (VMAT2 [2]): able to block uptake of FFN

Structure (SMILES): N[C@@H](Cc1ccc(O)c(O)c1)C(=O)O [L-DOPA, L-3,4-dihydroxyphenylalanine]
effect on TBZ-lowered AUC IPGTT (Lewis rats [1]; L-DOPA 6.0 mg/Kg I.P., one hour after TBZ, concurrent with glucose): reverse the effects of TBZ

Structure (SMILES): COc1cc2c(cc1OC)C1CC(=O)C(CC(C)C)CN1CC2 (stereo not drawn) [TBZ, tetrabenazine]
plasma elimination half life, t1/2 [3]: 2 h
dopamine content of brain (Lewis rats [4]): significantly reduced
reduction of dopamine levels in the brain (rats): 40%
reduction of norepinephrine levels in the brain (rats): 41%
reduction of serotonin levels in the brain (rats): 44%
AUC IPGTT (STZ treated rats; STZ treated rats): decreased
increase of AUC insulin (STZ treated rats; STZ treated rats which maintained glucose dependant insulin secretion): 50%-80%
dissociation constant (VMAT2 [5]): nanomolar range
AUC plasma glucagon (Lewis rats [6]; i.v. TBZ and glucose challenge): lower relative to controls
reduced affinity towards VMAT1 versus VMAT2 (VMAT1): more than 10,000 fold
reduction of glucose excursion (AUC IPGTT) (Lewis rats [1]; 2.25 μg/gm body weight i.v., older male Lewis rats >11 weeks): approximately 35%
decrease of AUC IPGTT (Lewis rats [1]): 26%
baseline fasting glucose concentration versus control animals (Lewis rats [1]; about 1 hour after TBZ, before glucose challenge): no reproducible differences
AUC IPGTT (Lewis rats [1]; chronic administration, approximately 0.1 mg/Kg body weight for five days): suppressed the AUC IPGTT in a fashion similar to the single high dose
AUC IPGTT (Lewis rats [1]; doses higher than 5.0 mg/Kg): increasingly variable, often surpassing that of control levels
glucose tolerance enhancing effect (AUC IPGTT) (Lewis rats [1]; doses lower than 0.3 mg/Kg): undetectable

effect on DPP-IV (DPP-IV): negative
activity on a per mole basis in blocking FFN transport (VMAT2 [2]): less than that of DTBZ
binding to VMAT2, displacement of [11C]DTBZ in the endocrine pancreas, relative to DTBZ (VMAT2 [7]): at least a weak binding
Structure (SMILES): COc1ccc(C2CC(OCC(C)C)=CC(=O)N2)cc1OC (stereo not drawn) [compound 8]
block of FFN uptake/transport (VMAT2 [2]): able to block FFN transport into INS vesicles
decrease of AUC IPGTT (Lewis rats [1]): 45%
hypoglycemic activity in IPGTT (improvement of glucose tolerance) (Lewis rats [1]): potent hypoglycemic effect

Structure (SMILES): COC1=CC(=O)N2CCc3cc(OC)c(OC)cc3C2C1 (stereo not drawn) [compound 15]
hypoglycemic activity in IPGTT (improvement of glucose tolerance) (Lewis rats [1]): active but less potent

Structure (SMILES): NCCc1ccc(O)c(O)c1 [dopamine]
effect on insulin enhancement by TBZ (Lewis rats [6]; dopamine i.v. at the same time as glucose): partially blocked the insulin enhancing effects of TBZ
